Test results reported in ChEMBL document CHEMBL3132859, “Synthesis and biological evaluation of a post-synthetically modified Trp-based diketopiperazine” (Medchemcomm, 2013).
Active and inactive are the calls of the source. The calls are words filed in the database; no cut-off is given here.

Assays:
Type in all cases: functional, cell-based
HT-29 [1] = assay: Antiproliferative activity against human HT-29 cells after 24 hrs by MTT assay
A549 = assay: Antiproliferative activity against human A549 cells after 72 hrs by MTT assay
HT-29 [2] = assay: Antiproliferative activity against human HT-29 cells after 72 hrs by MTT assay
SK-BR-3 = assay: Antiproliferative activity against human SKBR3 cells after 72 hrs by MTT assay
HeLa [3] = assay: Antiproliferative activity against human HeLa cells after 72 hrs by MTT assay
CAL-27 = assay: Antiproliferative activity against human CAL27 cells after 72 hrs by MTT assay
MDA-MB-231 = assay: Antiproliferative activity against human MDA-MB-231 cells after 72 hrs by MTT assay
HeLa [4] = assay: Antiproliferative activity against human HeLa cells after 24 hrs by MTT assay

Structure (SMILES)	Activity (HT-29 [1])	Activity (A549)	Activity (HT-29 [2])	Activity (SK-BR-3)	also measured
O=C1N[C@@H](Cc2c(-c3cc(C(F)(F)F)cc(C(F)(F)F)c3)[nH]c3ccccc23)C(=O)N2CCC[C@@H]12	Active	–	–	–	–
Cc1ccc(-c2[nH]c3ccccc3c2C[C@@H]2NC(=O)[C@@H]3CCCN3C2=O)cc1	–	Active	Active	Active	–
O=C1N[C@@H](Cc2c(-c3ccc(C(F)(F)F)cc3)[nH]c3ccccc23)C(=O)N2CCC[C@@H]12	–	Active	Active	Active	IC50 (HeLa [3]): 26 µM; Activity (CAL-27): Active; Activity (MDA-MB-231): Active
O=C1N[C@@H](Cc2c(-c3ccccc3C(F)(F)F)[nH]c3ccccc23)C(=O)N2CCC[C@@H]12	Active	–	–	–	Activity (HeLa [4]): Active
COc1ccccc1-c1[nH]c2ccccc2c1C[C@@H]1NC(=O)[C@@H]2CCCN2C1=O	Active	–	–	–	Activity (HeLa [4]): Active
O=C1N[C@@H](Cc2c[nH]c3ccccc23)C(=O)N2CCC[C@@H]12 [BREVIANAMIDE F]	–	–	–	–	IC50 (HeLa [3]): > 200 µM
COC(=O)c1ccc(-c2[nH]c3ccccc3c2C[C@@H]2NC(=O)[C@@H]3CCCN3C2=O)cc1	–	Active	Active	Active	–
O=C1N[C@@H](Cc2c(-c3ccc(Cl)cc3)[nH]c3ccccc23)C(=O)N2CCC[C@@H]12	–	Active	Active	Active	IC50 (HeLa [3]): 52 µM
O=C1N[C@H](Cc2c(-c3ccc(C(F)(F)F)cc3)[nH]c3ccccc23)C(=O)N2CCC[C@H]12	–	Active	–	–	Activity (CAL-27): Active; Activity (MDA-MB-231): Active
COc1ccc(-c2[nH]c3ccccc3c2C[C@@H]2NC(=O)[C@@H]3CCCN3C2=O)cc1	–	Active	Active	Active	–
O=C1N[C@@H](Cc2c(-c3ccccc3Cl)[nH]c3ccccc23)C(=O)N2CCC[C@@H]12	Active	–	–	–	Activity (HeLa [4]): Active
